Results on three cell lines are retold here after the supplement of paper PMC10307832.

Holding throughout (experiment): relative viability (nuclei count vs DMSO), 5 days (fraction); higher = more cells survive
Compound in the test “KIN001-266 + Trametinib”: CCN1CCC(CC1)N2C=C(N=N2)CNC3=CC4=C(C(=CN=C4C(=C3)Cl)C#N)NC5=CC(=C(C=C5)F)Cl [KIN001-266] + CC(=O)Nc1cccc(-n2c(=O)n(C3CC3)c(=O)c3c(Nc4ccc(I)cc4F)n(C)c(=O)c(C)c32)c1 [Trametinib] (partner 0.02 µM)
The method, boiled down: (§1)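 Values are medians from duplicate plates. Each reflects relative viability, defined as the nuclei count of treated wells over that of vehicle wells. Lung cancer cell lines in 1536-well plates were pin-tool dosed one day after seeding with one drug alone or with a fixed anchor-drug dose plus five library-drug doses (not always all listed) in √10 steps, then fixed, stained and imaged at 4× after 5 days.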

Compound in the test “KIN001-266 + Linsitinib”: CCN1CCC(CC1)N2C=C(N=N2)CNC3=CC4=C(C(=CN=C4C(=C3)Cl)C#N)NC5=CC(=C(C=C5)F)Cl [KIN001-266] + C[C@]1(O)C[C@@H](c2nc(-c3ccc4ccc(-c5ccccc5)nc4c3)c3c(N)nccn32)C1 [Linsitinib] (partner 1 µM)
The method, boiled down:
as §1

Compound in the test “KIN001-266 + Lapatinib”: CCN1CCC(CC1)N2C=C(N=N2)CNC3=CC4=C(C(=CN=C4C(=C3)Cl)C#N)NC5=CC(=C(C=C5)F)Cl [KIN001-266] + CS(=O)(=O)CCNCc1ccc(-c2ccc3ncnc(Nc4ccc(OCc5cccc(F)c5)c(Cl)c4)c3c2)o1 [Lapatinib] (partner 2 µM)
The method, boiled down: as §1

Compound in the test “KIN001-266 + OSI-027”: CCN1CCC(CC1)N2C=C(N=N2)CNC3=CC4=C(C(=CN=C4C(=C3)Cl)C#N)NC5=CC(=C(C=C5)F)Cl [KIN001-266] + COc1cccc2cc(-c3nc([C@H]4CC[C@H](C(=O)O)CC4)n4ncnc(N)c34)[nH]c12 [OSI-027] (partner 0.5 µM)
The method, boiled down:
as §1

As to LU99A, the relative viability with KIN001-266 + Trametinib (first compound 0.08 µM) came out at 0.546; with KIN001-266 + Trametinib (first compound 0.253 µM), 0.489; in the test with KIN001-266 + Trametinib (first compound 0.8 µM), 0.494; with KIN001-266 + Trametinib (first compound 2.53 µM), 0.552; with KIN001-266 + Trametinib (first compound 8 µM), 0.458; with KIN001-266 + Linsitinib (first compound 0.08 µM) it was 0.635. For the same cell line, the relative viability with KIN001-266 + Linsitinib (first compound 0.253 µM) came out at 0.564; in the test with KIN001-266 + Linsitinib (first compound 0.8 µM), 0.496; with KIN001-266 + Linsitinib (first compound 2.53 µM), 0.401; in the test with KIN001-266 + Linsitinib (first compound 8 µM) it was 0.467; in the test with KIN001-266 + Lapatinib (first compound 0.08 µM) it was 1.16; in the test with KIN001-266 + Lapatinib (first compound 0.253 µM), 1.07. Moreover, the relative viability with KIN001-266 + Lapatinib (first compound 0.8 µM) was found to be 1.03; in the test with KIN001-266 + Lapatinib (first compound 2.53 µM), 0.834; in the test with KIN001-266 + Lapatinib (first compound 8 µM), 0.803; in the test with KIN001-266 + OSI-027 (first compound 0.08 µM) it was 0.285; with KIN001-266 + OSI-027 (first compound 0.253 µM), 0.303; with KIN001-266 + OSI-027 (first compound 0.8 µM) it was 0.301. The relative viability amounted to 0.269 with KIN001-266 + OSI-027 (first compound 2.53 µM) and 0.29 in the test with KIN001-266 + OSI-027 (first compound 8 µM).

For the cell line LXF-289, the relative viability was 0.678 with KIN001-266 + Trametinib (first compound 0.08 µM); 0.683 with KIN001-266 + Trametinib (first compound 0.253 µM); 0.683 with KIN001-266 + Trametinib (first compound 0.8 µM); 0.679 with KIN001-266 + Trametinib (first compound 2.53 µM); 0.708 in the test with KIN001-266 + Trametinib (first compound 8 µM); 0.931 with KIN001-266 + Linsitinib (first compound 0.08 µM). Also, the relative viability was found to be 0.945 in the test with KIN001-266 + Linsitinib (first compound 0.253 µM); 0.878 in the test with KIN001-266 + Linsitinib (first compound 0.8 µM); 0.968 with KIN001-266 + Linsitinib (first compound 2.53 µM); 0.935 with KIN001-266 + Linsitinib (first compound 8 µM); 0.901 in the test with KIN001-266 + Lapatinib (first compound 0.08 µM); 0.898 with KIN001-266 + Lapatinib (first compound 0.253 µM). Besides, the relative viability in the test with KIN001-266 + Lapatinib (first compound 0.8 µM) came out at 0.862; in the test with KIN001-266 + Lapatinib (first compound 2.53 µM) it was 0.865; in the test with KIN001-266 + Lapatinib (first compound 8 µM), 0.96; in the test with KIN001-266 + OSI-027 (first compound 0.08 µM), 0.788; in the test with KIN001-266 + OSI-027 (first compound 0.253 µM), 0.843; in the test with KIN001-266 + OSI-027 (first compound 0.8 µM), 0.775. In addition, the relative viability was found to be 0.788 in the test with KIN001-266 + OSI-027 (first compound 2.53 µM) and 0.678 with KIN001-266 + OSI-027 (first compound 8 µM).

In the case of NCI-H23, the relative viability with KIN001-266 + Trametinib (first compound 0.08 µM) was 0.435; with KIN001-266 + Trametinib (first compound 0.253 µM) it was 0.419; with KIN001-266 + Trametinib (first compound 0.8 µM), 0.484; with KIN001-266 + Trametinib (first compound 2.53 µM), 0.356; in the test with KIN001-266 + Trametinib (first compound 8 µM), 0.377; with KIN001-266 + Linsitinib (first compound 0.08 µM), 0.626. Moreover, the relative viability was 0.604 with KIN001-266 + Linsitinib (first compound 0.253 µM); 0.591 with KIN001-266 + Linsitinib (first compound 0.8 µM); 0.691 with KIN001-266 + Linsitinib (first compound 2.53 µM); 0.55 with KIN001-266 + Linsitinib (first compound 8 µM); 1.22 with KIN001-266 + Lapatinib (first compound 0.08 µM); 1.12 in the test with KIN001-266 + Lapatinib (first compound 0.253 µM). Besides, the relative viability with KIN001-266 + Lapatinib (first compound 0.8 µM) is 1; with KIN001-266 + Lapatinib (first compound 2.53 µM), 0.991; with KIN001-266 + Lapatinib (first compound 8 µM), 0.845; with KIN001-266 + OSI-027 (first compound 0.08 µM) it was 0.651; in the test with KIN001-266 + OSI-027 (first compound 0.253 µM), 0.618; with KIN001-266 + OSI-027 (first compound 0.8 µM), 0.541. In addition, the relative viability is 0.398 with KIN001-266 + OSI-027 (first compound 2.53 µM) and 0.485 with KIN001-266 + OSI-027 (first compound 8 µM).
